How the values were obtained:
[1] = test system: ORYSAT (Rice, Tebonnet); assay: Preemergence herbicidal evaluation; format: in vivo, Oryza sativa, (L.) Tebonnet; settings: rated 4-5 weeks after treatment
[2] = test system: SETVI (Setaria viridis); assay: Postemergence herbicidal evaluation; format: in vivo, (L.) Beau; settings: postemergence
Summary of the method: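 First, seedlings are raised in flats for about two weeks. Next, compound dispersed in 50/50 acetone/water with 0.5% TWEEN 20 is sprayed at 40 psi to deliver about 0.0040–1.000 kg/ha. Plants are then maintained in the greenhouse and rated 0-9 after four to five weeks.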

[3] = test system: MOOVA (Monochoria vaginalis); assay: Flooded paddy, preemergence weed control; format: in vivo, Presl.; settings: rated 3-4 weeks after treatment, 0-9 rating scale
Summary of the method: (§1)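 Seeds or propagules were planted in the top 0.5 cm of silt loam soil and kept flooded 1.5–3 cm above the surface throughout, then held in the greenhouse. Injury was rated visually on a 0–9 scale against untreated controls, covering stand, vigor, malformation, size and chlorosis.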

[4] = test system: GALAP (Galium aparine); assay: Preemergence herbicidal evaluation; format: in vivo; settings: rated 4-5 weeks after treatment
Summary of the method: (§2)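 Visual 0–9 rating versus control (stand, vigor, malformation, size, chlorosis, overall appearance), scored four to five weeks post-treatment. Preemergence spray of aqueous acetone solution onto freshly seeded soil cups; plants grown under conventional greenhouse care.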

[5] = test system: SAGPY (Sagittaria pygmaea); assay: Flooded paddy, preemergence weed control; format: in vivo, L.; settings: rated 3-4 weeks after treatment, 0-9 rating scale
Summary of the method: as §1

[6] = test system: GALAP (Galium aparine); assay: Postemergence herbicidal evaluation; format: in vivo; settings: postemergence
Summary of the method: (§3)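 Seedlings grown about two weeks in flats, sprayed, then kept under standard greenhouse care. Rated visually 4–5 weeks after treatment on a 0–9 scale (stand, vigour, malformation, size, chlorosis, overall appearance) relative to untreated control; repeat tests averaged.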

[7] = test system: AMBEL (Ambrosia artemisifolia); assay: Preemergence herbicidal evaluation; format: in vivo, L.; settings: rated 4-5 weeks after treatment
Summary of the method: as §2

[8] = test system: CHEAL (Chenopodium album); assay: Preemergence herbicidal evaluation; format: in vivo, L.; settings: rated 4-5 weeks after treatment
Summary of the method: as §2

[9] = test system: CASOB (Cassia obtusifolia); assay: Preemergence herbicidal evaluation; format: in vivo, L.; settings: rated 4-5 weeks after treatment
Summary of the method: as §2

[10] = test system: TRZAWR (Wheat, Winter, cv Riband); assay: Postemergence herbicidal evaluation; format: in vivo, Triticum aestivum; settings: postemergence
Summary of the method: as §3

[11] = test system: ORYSAT (Rice, Tebonnet); assay: Postemergence herbicidal evaluation; format: in vivo, Oryza sativa, (L.) Tebonnet; settings: postemergence
Summary of the method: as §3

[12] = test system: ECHCG (Echinochloa crus-galli); assay: Preemergence herbicidal evaluation; format: in vivo, (L.) Beau; settings: rated 4-5 weeks after treatment
Summary of the method: as §2

[13] = test system: SETVI (Setaria viridis); assay: Preemergence herbicidal evaluation; format: in vivo, (L.) Beau; settings: rated 4-5 weeks after treatment
Summary of the method: as §2

[14] = test system: CYPIR (Cyperus iria); assay: Flooded paddy, preemergence weed control; format: in vivo; settings: rated 3-4 weeks after treatment, 0-9 rating scale
Summary of the method: as §1

[15] = test system: ABUTH (Abutilon theophrasti); assay: Postemergence herbicidal evaluation; format: in vivo, Medic.; settings: postemergence
Summary of the method: as §3

[16] = test system: IPOHE (Ipomoea hederacea); assay: Postemergence herbicidal evaluation; format: in vivo, (L.) Jacq.; settings: postemergence
Summary of the method: as §3

[17] = test system: AMBEL (Ambrosia artemisifolia); assay: Postemergence herbicidal evaluation; format: in vivo, L.; settings: postemergence
Summary of the method: as §3

[18] = test system: CHEAL (Chenopodium album); assay: Postemergence herbicidal evaluation; format: in vivo, L.; settings: postemergence
Summary of the method: as §3

[19] = test system: CASOB (Cassia obtusifolia); assay: Postemergence herbicidal evaluation; format: in vivo, L.; settings: postemergence
Summary of the method: as §3

Cn1c(C(F)(F)F)cc(=O)n(-c2ccc3snc(C4OC(=O)C(C)(C)O4)c3c2)c1=O (stereo not drawn) [Compound 71, 3-[3-(4,4-dimethyl-5-oxo-1,3-dioxolan-2-yl)-1,2-benzisothiazol-5-yl]-1-methyl-6-(trifluoromethyl)uracil]
9.0: Preemergence herbicidal rating GALAP ([4]; Rate 0.1250 kg/ha) | Preemergence herbicidal rating GALAP ([4]; Rate 0.2500 kg/ha) | Preemergence herbicidal rating AMBEL ([7]; Rate 0.1250 kg/ha) | Preemergence herbicidal rating AMBEL ([7]; Rate 0.2500 kg/ha) | Preemergence herbicidal rating CHEAL ([8]; Rate 0.0620 kg/ha) | Preemergence herbicidal rating CHEAL ([8]; Rate 0.1250 kg/ha) | Preemergence herbicidal rating CHEAL ([8]; Rate 0.2500 kg/ha) | Preemergence herbicidal rating SETVI ([13]; Rate 0.1250 kg/ha) | Preemergence herbicidal rating SETVI ([13]; Rate 0.2500 kg/ha) | ABUTH herbicidal rating ([15]; rate 0.0320 kg/ha) | ABUTH herbicidal rating ([15]; rate 0.0620 kg/ha) | IPOHE herbicidal rating ([16]; rate 0.0320 kg/ha) | IPOHE herbicidal rating ([16]; rate 0.0620 kg/ha) | CHEAL herbicidal rating ([18]; rate 0.0620 kg/ha)
7.0: SETVI herbicidal rating ([2]; rate 0.0620 kg/ha) | GALAP herbicidal rating ([6]; rate 0.0620 kg/ha) | AMBEL herbicidal rating ([17]; rate 0.0320 kg/ha)
3.5: Preemergence herbicidal rating CASOB ([9]; Rate 0.0620 kg/ha) | TRZAWR herbicidal rating ([10]; rate 0.0620 kg/ha)
5.5: Preemergence herbicidal rating ORYSAT ([1]; Rate 0.0620 kg/ha) | Preemergence herbicidal rating ECHCG ([12]; Rate 0.0620 kg/ha)
0.0: herbicidal rating, MOOVA ([3]; rate 0.0080 kg/ha) | herbicidal rating, MOOVA ([3]; rate 0.0320 kg/ha) | herbicidal rating, MOOVA ([3]; rate 0.1250 kg/ha) | herbicidal rating, SAGPY ([5]; rate 0.0080 kg/ha) | herbicidal rating, SAGPY ([5]; rate 0.0320 kg/ha) | herbicidal rating, SAGPY ([5]; rate 0.1250 kg/ha) | herbicidal rating, CYPIR ([14]; rate 0.0080 kg/ha) | herbicidal rating, CYPIR ([14]; rate 0.0320 kg/ha) | herbicidal rating, CYPIR ([14]; rate 0.1250 kg/ha) | CASOB herbicidal rating ([19]; rate 0.0320 kg/ha)
8.5: Preemergence herbicidal rating ORYSAT ([1]; Rate 0.2500 kg/ha)
6.5: Preemergence herbicidal rating CASOB ([9]; Rate 0.1250 kg/ha)
2.0: SETVI herbicidal rating ([2]; rate 0.0320 kg/ha) | GALAP herbicidal rating ([6]; rate 0.0320 kg/ha) | CASOB herbicidal rating ([19]; rate 0.0620 kg/ha)
6.0: Preemergence herbicidal rating GALAP ([4]; Rate 0.0620 kg/ha) | AMBEL herbicidal rating ([17]; rate 0.0620 kg/ha) | CHEAL herbicidal rating ([18]; rate 0.0320 kg/ha)
3.0: TRZAWR herbicidal rating ([10]; rate 0.0320 kg/ha) | ORYSAT herbicidal rating ([11]; rate 0.0320 kg/ha)
8.0: Preemergence herbicidal rating ORYSAT ([1]; Rate 0.1250 kg/ha) | Preemergence herbicidal rating AMBEL ([7]; Rate 0.0620 kg/ha) | Preemergence herbicidal rating ECHCG ([12]; Rate 0.1250 kg/ha) | Preemergence herbicidal rating ECHCG ([12]; Rate 0.2500 kg/ha) | Preemergence herbicidal rating SETVI ([13]; Rate 0.0620 kg/ha)
4.5: ORYSAT herbicidal rating ([11]; rate 0.0620 kg/ha)
7.5: Preemergence herbicidal rating CASOB ([9]; Rate 0.2500 kg/ha)
